According to article PMC9739695, “Water-Soluble Salts Based on Benzofuroxan Derivatives—Synthesis and Biological Activity” (International Journal of Molecular Sciences, 2022):
Read-outs that look alike come from different tables or passages of the source.

How the values were obtained:
barley seeds = assay: Pre-sowing seed treatment, sowing qualities of barley seeds; format: in vivo; conditions: for germination energy / laboratory germination: control 95.2
[1] = Acute toxicity, single intraperitoneal administration; format: in vivo; conditions: male, BDF1 [DBA2 × C57Bl6] hybrid, mouse, in vivo, ip, BDF1 mice, single intraperitoneal administration
Description: (§1) To determine LD50, a curve of increasing toxicity was built with increasing dose, based on which the following parameters were additionally determined: MTD, LD16, LD84 and LD100.
(§2) In the experiment, clinically healthy animals were used, which were kept in the same conditions with a 12-h light and free access to water and food. Each experimental group included six animals. […] Control animals received 0.9% NaCl solution. Animals were monitored continuously for 4 h on the first day after administration of the test compounds. […] Calculation of toxic doses was performed using probit analysis.

BDF1 mice = assay: as above; format: in vivo
Description: as §1, §2

sorghum seeds = assay: Pre-sowing seed treatment, sowing qualities of sorghum seeds; format: in vivo; conditions: for germination energy: control 52.3; for laboratory germination: control 57
rice seeds = assay: Pre-sowing seed treatment, sowing qualities of rice seeds; format: in vivo; conditions: for germination energy: control 71.4; for laboratory germination: control 95.2
wheat seeds = assay: Pre-sowing seed treatment, sowing qualities of wheat seeds; format: in vivo; conditions: for germination energy: control 82; for laboratory germination: control 85.7
Hep-2 (larynx carcinoma) = assay: Cell viability, MTT test; format: cell-based; conditions: Homo sapiens, read-out: IC50 (concentration causing 50% inhibition of cell population growth)
[2] = system: A549 (adenocarcinomic human alveolar basal epithelial cells); assay: Cell viability, MTT test; format: cell-based; conditions: read-out: IC50 (concentration causing 50% inhibition of cell population growth)
HeLa (cervical tumor) = assay: Cell viability, MTT test; format: cell-based; conditions: Homo sapiens, read-out: IC50 (concentration causing 50% inhibition of cell population growth)
[3] = single intraperitoneal administration, doses given in mg/kg, probit analysis

CN(C)CCCNc1c([N+](=O)[O-])c(Cl)cc2c1no[n+]2[O-].Cl [4g, 6-chloro-4-(3-(dimethylammonio)propylamino)-5-nitrobenzo[c][1,2,5]oxadiazole 1-oxide chloride]
germination energy (barley seeds; 10 mmol): 52.3% | laboratory germination (barley seeds; 10 mmol): 52.3% | sowing qualities of seeds compared with control (barley seeds; 20 mmol): higher than control | germination energy (barley seeds; 20 mmol): 100% | laboratory germination (barley seeds; 20 mmol): 100% | sowing qualities of seeds compared with control (barley seeds; 40 mmol): higher than control | germination energy (barley seeds; 40 mmol): 100% | laboratory germination (barley seeds; 40 mmol): 100% | MTD at 14 days ([1]; doses given in mg/kg): 5 mg/kg | LD50 at 14 days ([1]; probit analysis): 13.8 ± 1.73 mg/kg | toxicity class from acute toxicity study (BDF1 mice; single i.p.): highly toxic | Body Weight (BDF1 mice; single i.p. 5 mg/kg, 0 Day, control 21.55 ± 0.28): 21.88 ± 0.45 g | Body Weight (BDF1 mice; single i.p. 5 mg/kg, 1 Day, control 21.43 ± 0.56): 21.59 ± 0.55 g | Body Weight (BDF1 mice; single i.p. 5 mg/kg, 2 Days, control 21.67 ± 0.77): 21.64 ± 0.71 g | Body Weight (BDF1 mice; single i.p. 5 mg/kg, 3 Days, control 21.99 ± 0.79): 21.72 ± 0.79 g | Body Weight (BDF1 mice; single i.p. 5 mg/kg, 7 Days, control 22.80 ± 0.44): 22.12 ± 0.75 g | Body Weight (BDF1 mice; single i.p. 5 mg/kg, 14 Days, control 23.96 ± 0.68): 23.19 ± 1.21 g | Body Weight (BDF1 mice; single i.p. 10 mg/kg, 0 Day, control 21.55 ± 0.28): 21.99 ± 0.21 g | Body Weight (BDF1 mice; single i.p. 10 mg/kg, 1 Day, control 21.43 ± 0.56): 21.54 ± 0.41 g | Body Weight (BDF1 mice; single i.p. 10 mg/kg, 2 Days, control 21.67 ± 0.77): 21.60 ± 0.52 g | Body Weight (BDF1 mice; single i.p. 10 mg/kg, 3 Days, control 21.99 ± 0.79): 21.86 ± 0.66 g | Body Weight (BDF1 mice; single i.p. 10 mg/kg, 7 Days, control 22.80 ± 0.44): 22.84 ± 1.06 g | Body Weight (BDF1 mice; single i.p. 10 mg/kg, 14 Days, control 23.96 ± 0.68): 23.70 ± 1.12 g | Body Weight (BDF1 mice; single i.p. 15 mg/kg, 0 Day, control 21.55 ± 0.28): 21.86 ± 0.57 g | Body Weight (BDF1 mice; single i.p. 15 mg/kg, 1 Day, control 21.43 ± 0.56): 21.36 ± 2.51 g | Body Weight (BDF1 mice; single i.p. 15 mg/kg, 2 Days, control 21.67 ± 0.77): 21.60 ± 2.43 g | Body Weight (BDF1 mice; single i.p. 15 mg/kg, 3 Days, control 21.99 ± 0.79): 22.11 ± 3.03 g | Body Weight (BDF1 mice; single i.p. 15 mg/kg, 7 Days, control 22.80 ± 0.44): 22.41 ± 2.74 g | Body Weight (BDF1 mice; single i.p. 15 mg/kg, 14 Days, control 23.96 ± 0.68): 23.15 ± 2.14 g | Body Weight (BDF1 mice; single i.p. 20 mg/kg, 0 Day, control 21.55 ± 0.28): 22.37 ± 0.80 g | Body Weight (BDF1 mice; single i.p. 20 mg/kg, 1 Day, control 21.43 ± 0.56): 21.99 ± 3.09 g | Body Weight (BDF1 mice; single i.p. 20 mg/kg, 2 Days, control 21.67 ± 0.77): 21.77 ± 3.79 g | Body Weight (BDF1 mice; single i.p. 20 mg/kg, 3 Days, control 21.99 ± 0.79): 21.85 ± 3.18 g | Body Weight (BDF1 mice; single i.p. 20 mg/kg, 7 Days, control 22.80 ± 0.44): 22.81 ± 3.89 g | Body Weight (BDF1 mice; single i.p. 20 mg/kg, 14 Days, control 23.96 ± 0.68): 23.41 ± 3.01 g | Body Weight (BDF1 mice; single i.p. 25 mg/kg, 0 Day, control 21.55 ± 0.28): 21.87 ± 0.74 g | time after administration at which death of animals began (BDF1 mice; single i.p., doses of 10–25 mg/kg): 5 to 30 min | LD100 (BDF1 mice; single intraperitoneal administration, doses given in mg/kg): 25 | LD16 (BDF1 mice; [3]): 9.4 | LD84 (BDF1 mice; [3]): 20.3 | germination energy (sorghum seeds; 10 mmol): 36.6% | laboratory germination (sorghum seeds; 10 mmol): 50% | sowing qualities of seeds compared with control (sorghum seeds; 20 mmol): higher than in the control | germination energy (sorghum seeds; 20 mmol): 61.9% | laboratory germination (sorghum seeds; 20 mmol): 71.4% | sowing qualities of seeds compared with control (sorghum seeds; 40 mmol): higher than in the control | germination energy (sorghum seeds; 40 mmol): 57.2% | laboratory germination (sorghum seeds; 40 mmol): 80.9% | germination energy (rice seeds; 10 mmol): 38% | laboratory germination (rice seeds; 10 mmol): 47.6% | germination energy (rice seeds; 20 mmol): 71.4% | laboratory germination (rice seeds; 20 mmol): 100% | sowing qualities of seeds compared with control (rice seeds; 40 mmol): at the control level | germination energy (rice seeds; 40 mmol): 76.1% | laboratory germination (rice seeds; 40 mmol): 95.2% | germination energy (wheat seeds; 10 mmol): 42.8% | laboratory germination (wheat seeds; 10 mmol): 47.6% | germination energy (wheat seeds; 20 mmol): 80.9% | laboratory germination (wheat seeds; 20 mmol): 90.4% | germination energy (wheat seeds; 40 mmol): 80.9% | laboratory germination (wheat seeds; 40 mmol): 80.9% | IC50 (Hep-2 (larynx carcinoma); HEp-2, 24 h): 70.3 ± 1.28 µM | IC50 (Hep-2 (larynx carcinoma); HEp-2, 72 h): 58 ± 2.9 µM | IC50 ([2]; A549, 24 h): 82 ± 1.54 µM | IC50 ([2]; A549, 72 h): 64.2 ± 2.12 µM | IC50 (HeLa (cervical tumor); 24 h): 97.8 ± 3.31 µM | IC50 (HeLa (cervical tumor); 72 h): 83.1 ± 4.29 µM
